Measured values as given in patent US8324406B2, “Antitumoral dihydropyran-2-one compounds” (priority 2006, dated 2012).
Read-outs that look alike come from different tables or passages of the source.

Experiments:
Assay in all cases: cells
Assay type in all cases: cell-based
Details in all cases: Homo sapiens; for IC (TGI): read-out: TGI
A549 = system: A549
Description: (§1) The aim of this assay is to evaluate the in vitro cytostatic (ability to delay or arrest tumor cell growth) or cytotoxic (ability to kill tumor cells) activity of the samples being tested.
(§2) Evaluation of Cytotoxic Activity Using the SBR Colorimetric Assay
(§3) A colorimetric type of assay, using sulforhodamine B (SRB) reaction has been adapted for a quantitative measurement of cell growth and viability (following the technique described by Skehan P et al. J. Natl. Cancer Inst. 1990, 82, 1107-1112).
(§4) This form of assay employs SBS-standard 96-well cell culture microplates (Faircloth et al. Methods in cell science, 1988, 11(4), 201-205; Mosmann et al, Journal of. Immunological. Methods, 1983, 65(1-2), 55-63). All the cell lines used in this study, derived from different types of human cancer, were obtained from the American Type Culture Collection (ATCC).
(§5) Cells were maintained in Dulbecco's Modified Eagle Medium (DMEM) supplemented with 10% Fetal Bovine Serum (FBS), 2 mM L-glutamine, 100 U/mL penicillin and 100 U/mL streptomycin at 37° C., 5% CO2 and 98% humidity. For the experiments, cells were harvested from subconfluent cultures using trypsinization and resuspended in fresh medium before counting and plating.
(§6) Cells were seeded in 96 well microtiter plates at 5×10^3 cells per well in aliquots of 150 μL, and allowed to attach to the plate surface for 18 hours in drug free medium. One control (untreated) plate of each cell line was fixed (as described below) and used for time zero reference value. Afterwards, test samples were added to the cultures in ten serial dilutions, in aliquots of 50 μL, ranging from 10 to 0.00262 μg/mL. After 48 hours exposure, the antitumor effect was estimated by the SRB method: Briefly, cells were washed twice with PBS, fixed for 15 min in 1% glutaraldehyde solution, rinsed twice in PBS, and stained in 0.4% SRB solution for 30 min at room temperature. Cells were then rinsed several times with 1% acetic acid solution and air-dried. SRB was then extracted in 10 mM trizma base solution and the absorbance measured in an automated spectrophotometric plate reader at 490 nm. Cell survival was expressed as percentage of control cell growth. The final effect of the sample being tested was estimated by applying the NCI algorithm (Boyd M R and Paull K D. Drug Dev. Res. 1995, 34, 91-104).
(§7) Using the mean±SD of triplicate cultures, a dose-response curve was automatically generated using nonlinear regression analysis. Three reference parameters were calculated (NCI algorithm) by automatic interpolation: GI50=concentration that produces 50% growth inhibition; TGI=total growth inhibition (cytostatic effect) and LC50=concentration that produces 50% net cell killing (cytotoxic effect).

HT29 = system: HT29
Description: as §1, §2, §3, §4, §5, §6, §7

MDA-MB-231 = system: MDA-MB-231
Description: as §1, §2, §3, §4, §5, §6, §7

[1] = A549, 48 hours exposure, SRB, 50% net cell killing (cytotoxic effect), read-out: LC50 (the source's name)
[2] = A549, 48 hours exposure, SRB, concentration that produces 50% growth inhibition, read-out: GI50
[3] = A549, 48 hours exposure, SRB, total growth inhibition (cytostatic effect)
[4] = HT-29, HT29, 48 hours exposure, SRB, 50% net cell killing (cytotoxic effect), read-out: LC50 (the source's name)
[5] = HT-29, HT29, 48 hours exposure, SRB, concentration that produces 50% growth inhibition, read-out: GI50
[6] = HT-29, HT29, 48 hours exposure, SRB, total growth inhibition (cytostatic effect)
[7] = MDA-MB-231, 48 hours exposure, SRB, 50% net cell killing (cytotoxic effect), read-out: LC50 (the source's name)
[8] = MDA-MB-231, 48 hours exposure, SRB, concentration that produces 50% growth inhibition, read-out: GI50
[9] = MDA-MB-231, 48 hours exposure, SRB, total growth inhibition (cytostatic effect)
[10] = MDA-MB-231, 48 h, read-out: LC50

| Structure (SMILES) | CC50 (A549; [1]) | GI50 (A549; [2]) | IC (TGI) (A549; [3]) | CC50 (HT29; [4]) | GI50 (HT29; [5]) | IC (TGI) (HT29; [6]) | CC50 (MDA-MB-231; [7]) | GI50 (MDA-MB-231; [8]) | IC (TGI) (MDA-MB-231; [9]) | GI50 (A549; A549, 48 h) | CC50 (A549; A549, 48 h, read-out: LC50) | IC (TGI) (A549; A549, 48 h) | GI50 (HT29; HT-29, 48 h) | CC50 (HT29; HT-29, 48 h, read-out: LC50) | IC (TGI) (HT29; HT-29, 48 h) | GI50 (MDA-MB-231; MDA-MB-231, 48 h) | CC50 (MDA-MB-231; [10]) | IC (TGI) (MDA-MB-231; MDA-MB-231, 48 h) |
| --- | --- | --- | --- | --- | --- | --- | --- | --- | --- | --- | --- | --- | --- | --- | --- | --- | --- | --- |
| COC1=CC[C@@H]([C@@H](C)/C=C(C)/C=C\C=C/C(=O)N[C@@H](C(N)=O)C(C)(C)C)OC1=O [(15R)-7] | > 24700 nM | 1040 nM | 3460 nM | 1310 nM | 346 nM | 593 nM | > 24700 nM | 766 nM | 2470 nM | – | – | – | – | – | – | – | – | – |
| COC1=CC[C@@H]([C@@H](C)/C=C(C)/C=C\C=C/C(=O)N[C@H](C(=O)N/C=C\C[C@@H](C/C=C(\C)Cl)OC(N)=O)C(C)C)OC1=O [(21S)-5] | > 1690 nM | 6.92 nM | 28.7 nM | 3.88 nM | 2.53 nM | 2.87 nM | 103 nM | 4.56 nM | 18.6 nM | – | – | – | – | – | – | – | – | – |
| COC1=CC[C@@H]([C@@H](C)/C=C(C)/C=C\C=C/C(=O)N[C@H](C(=O)N/C=C\C[C@H](O)C/C=C(\C)Cl)C(C)(C)C)OC1=O [(21S)-30a] | > 1630 nM | 3.73 nM | 195 nM | > 1630 nM | 2.66 nM | 3.02 nM | 284 nM | 2.49 nM | 21.3 nM | – | – | – | – | – | – | – | – | – |
| COC1=CC[C@@H]([C@@H](C)/C=C(C)/C=C/C=C/C(=O)N[C@H](C(=O)N/C=C\C[C@H](C/C=C(\C)Cl)OC(N)=O)C(C)(C)C)OC1=O [Compound 3] | – | – | – | – | – | – | – | – | – | 1.02 nM | > 165 nM | 4.29 nM | 0.445 nM | > 165 nM | 0.759 nM | 0.924 nM | 9.57 nM | 2.47 nM |
| C/C=C\C[C@@H](C/C=C\NC(=O)[C@@H](NC(=O)\C=C/C=C\C(C)=C\[C@H](C)[C@@H]1CC=C(OC)C(=O)O1)C(C)(C)C)OC(N)=O [Compound 4] | – | 0.595 nM | 2.45 nM | – | < 0.431 nM | 0.928 nM | – | 0.613 nM | 1.49 nM | – | > 1640 nM | – | – | 1.12 nM | – | – | 8.23 nM | – |
| COC1=CC[C@@H]([C@@H](C)/C=C(C)/C=C\C=C/C(=O)N[C@H](C(=O)N/C=C\C[C@H](C/C=C(\C)Cl)OC(N)=O)C(C)C)OC1=O [Compound 5] | > 169 nM | 0.0608 nM | 0.321 nM | > 169 nM | 0.0439 nM | 0.128 nM | 4.9 nM | 0.103 nM | 0.456 nM | – | – | – | – | – | – | – | – | – |
| COC1=CCC(C(C)/C=C(C)/C=C/C=C\C(=O)NC(C(=O)N/C=C\CC(C/C=C(\C)Cl)OC(N)=O)C(C)C)OC1=O (stereo not drawn) [Compound 6] | > 1640 nM | 0.76 nM | > 1640 nM | 4.9 nM | 0.591 nM | 1.01 nM | 15.5 nM | 0.49 nM | 3.21 nM | – | – | – | – | – | – | – | – | – |
| COC1=CC[C@@H]([C@@H](C)/C=C(C)/C=C\C=C/C(=O)N[C@H](C(N)=O)C(C)(C)C)OC1=O [Compound 7] | > 2470 nM | 618 nM | 1190 nM | 816 nM | 420 nM | 544 nM | 2450 nM | 420 nM | 841 nM | – | – | – | – | – | – | – | – | – |
| COC1=CC[C@@H]([C@@H](C)/C=C(C)/C=C\C=C\C(=O)N[C@H](C(=O)N/C=C\C[C@H](C/C=C(\C)Cl)OC(N)=O)C(C)(C)C)OC1=O [Compound 8] | – | – | – | – | – | – | – | – | – | 3.63 nM | > 1650 nM | 13 nM | 2.14 nM | 6.27 nM | 3.13 nM | 3.46 nM | 41.2 nM | 10.1 nM |
| COC1=CC[C@@H]([C@@H](C)/C=C(C)/C=C\C=C/C(=O)N[C@H](C(=O)N/C=C\C[C@H](C/C=C(\C)Cl)O[Si](C)(C)C(C)(C)C)C(C)(C)C)OC1=O [Compound 29a] | 8560 nM | 886 nM | 3400 nM | 4430 nM | 605 nM | 1420 nM | 6200 nM | 1180 nM | 2800 nM | – | – | – | – | – | – | – | – | – |
| COC1=CC[C@@H]([C@@H](C)/C=C(C)/C=C\C=C/C(=O)N[C@@H](Cc2ccccc2)C(=O)N/C=C\C[C@H](C/C=C(\C)Cl)O[Si](C)(C)C(C)(C)C)OC1=O [Compound 29d] | 1380 nM | 464 nM | 801 nM | 928 nM | 829 nM | 872 nM | 1830 nM | 1100 nM | 1390 nM | – | – | – | – | – | – | – | – | – |
| COC1=CC[C@@H]([C@@H](C)/C=C(C)/C=C\C=C\C(=O)N[C@H](C(=O)N/C=C\C[C@H](C/C=C(\C)Cl)O[Si](C)(C)C(C)(C)C)C(C)(C)C)OC1=O [Compound 29e] | 2660 nM | 1150 nM | 1770 nM | 2360 nM | 2070 nM | 2210 nM | 2070 nM | 1140 nM | 1480 nM | – | – | – | – | – | – | – | – | – |
| COC1=CC[C@@H]([C@@H](C)/C=C(C)/C=C\C=C/C(=O)N[C@H](C(=O)N/C=C\C[C@@H](O)C/C=C(\C)Cl)C(C)(C)C)OC1=O [Compound 30a] | > 1780 nM | 2.31 nM | 137 nM | 10.1 nM | 1.35 nM | 2.13 nM | 85.2 nM | 1.95 nM | 9.41 nM | – | – | – | – | – | – | – | – | – |
| C/C=C\C[C@H](O)C/C=C\NC(=O)[C@@H](NC(=O)\C=C/C=C\C(C)=C\[C@H](C)[C@@H]1CC=C(OC)C(=O)O1)C(C)(C)C [Compound 30b] | > 18900 nM | 22.7 nM | 322 nM | 4730 nM | 9.84 nM | 92.7 nM | 5110 nM | 20.8 nM | 511 nM | – | – | – | – | – | – | – | – | – |
